Measurements reported in PubChem BioAssay AID720547 (The Scripps Research Institute Molecular Screening Center, 2013).
Active and inactive are the calls of the source.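 Rule for the calls: active = compound flagged as a likely artifact in this counterscreen, with IC50 of 10 µM or lower; inactive = IC50 above 10 µM.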

The compounds below were run on HEK293 Gal4-VP16 luciferase reporter counterscreen, luminescence (assay: VP16-driven transactivation reporter suppression potency – cell-based, luminescence, HEK293, counter-screen for COUP-TFII inhibitor project, dose response (AID 720547);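 note: potency for lowering the luciferase signal driven by Gal4-VP16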).
With `N=c1c2c(n(Cc3ccc(Cl)cc3)c3c1CCC3)CCC2` the IC50 was 89 µM (inactive).
`O=C(CSc1nnc(Cn2nnc3ccccc32)o1)N(Cc1ccc(F)cc1)c1ccccc1` was tested, and the IC50 was > 85.4 µM (inactive).
With `CCOC(=O)N1CCC(Nc2ncnc3c2cnn3-c2ccc(C)cc2C)CC1` the IC50 was > 85.4 µM (inactive).
`CC(C)CC(NC(=O)CCCNC(=O)CCC(=O)OC1O[C@H]2OC3(C)CC[C@H]4[C@H](C)CCC(C1C)C24OO3)C(=O)O` (some centres undefined) was tested, and the IC50 was > 85.4 µM (inactive).
In the case of `CC(C)c1ccc(CN2CCN(C(=O)CSc3nnnn3C3CC3)CC2)cc1`, the IC50 is reported as > 85.4 µM (inactive).
In the case of `COc1ccc(CNC(=O)c2cccc3c(-c4cccnc4)coc23)cc1OC`, the IC50 is reported as 43.4 µM (inactive).
For `N#CCSc1nnc(-c2sc3ccccc3c2Cl)o1`, the IC50 was 85.9 µM (inactive).
In the case of `Cc1nn(C)c(C)c1/C=C/C(=O)c1ccc(Cl)cc1Cl`, the IC50 is reported as > 85.4 µM (inactive).
`C=CC[n+]1c(-c2ccc(Cl)cc2Cl)csc1Nc1c(C)n(C)n(-c2ccccc2)c1=O` was tested, and the IC50 was > 85.4 µM (inactive).
With `CCc1ccc(CN(C)C(=O)c2cc(COc3cccc4cnccc34)on2)cc1` the IC50 was > 85.4 µM (inactive).
`C[n+]1c2n(c3ccccc31)N=C(c1ccc(-c3ccccc3)cc1)CS2` was tested, and the IC50 was > 28.5 µM (inactive).
In the case of `S=C(NCCc1ccccc1)Nc1cccc2cnccc12`, the IC50 is reported as > 85.4 µM (inactive).
For `Cc1ccnc(Nc2nc(-c3sc(C)nc3C)cs2)c1`, the IC50 was > 85.3 µM (inactive).
For `COc1ccc(NS(=O)(=O)c2ccc(-c3coc(C)n3)cc2)cc1OC`, the IC50 was > 85.4 µM (inactive).
For `CC[C@H]1CN2CCc3cc(OC)c(OC)cc3C2C[C@@H]1C[C@H]1NCCc2cc(OC)c(OC)cc21` (some centres undefined), the IC50 was > 85.4 µM (inactive).
With `O=C(CSc1nnnn1C1CC2CCC1C2)Nc1ccnc2ccccc12` (centres undefined) the IC50 was > 85.4 µM (inactive).
For `c1ccc(C(Cc2nc(-c3ccncc3)no2)c2ccccc2)cc1`, the IC50 was > 85.4 µM (inactive).
For `CCOC(=O)c1cnc(-n2nc(C)cc2C)nc1NC1CCCCC1`, the IC50 was 45.4 µM (inactive).
`CC(=O)c1c(C)[nH]c(C(=O)COc2cc(C)ccc2C(C)C)c1C` was tested, and the IC50 was > 85.4 µM (inactive).
For `CCNc1nc(-c2sc(NC(=O)C(C)(C)C)nc2C)c(-n2cc(-c3ccccc3)nn2)s1`, the IC50 was 21.1 µM (inactive).
For `Cc1ccc(S(=O)(=O)NCc2ccncc2)c(C)c1C`, the IC50 was > 85.5 µM (inactive).
With `CCCc1cc(=O)n2nc(N3CCC(C(=O)N4CCN(c5ccc(OC)cc5)CC4)CC3)sc2n1` the IC50 was > 85.4 µM (inactive).
In the case of `COc1ccc(-c2ccc3oc(-c4ccc(OC)cc4)c(C#CCO)c3c2)cc1`, the IC50 is reported as > 85.4 µM (inactive).
In the case of `COC(=O)C1=C(c2ccc(-c3ccccc3)c(F)c2)C[C@@H]2CC[C@H]1N2C(=O)N1CCCC1`, the IC50 is reported as > 85.4 µM (inactive).
With `COc1ccc(CN(C)c2ccc(S(=O)(=O)N3CCN(C)CC3)cc2[N+](=O)[O-])cc1OC` the IC50 was > 85.4 µM (inactive).
`CC(C)(C)c1ccc(/C=N/Nc2ccc(C(=O)O)cc2)cc1` was tested, and the IC50 was > 85.4 µM (inactive).
In the case of `Cn1nccc1C(=O)NC1CCCc2c1cnn2-c1ccccc1F` (centres undefined), the IC50 is reported as > 85.4 µM (inactive).
In the case of `Cc1ccc(F)cc1NC(=O)Cc1nn(C)c(=O)c2ccccc12`, the IC50 is reported as > 85.4 µM (inactive).
With `Cc1cc(-n2c(C)cc(C(=O)CSc3ncnc4ccccc34)c2C)no1` the IC50 was > 85.5 µM (inactive).
With `Cc1cccc(Cl)c1NC(=O)N1CCCN(c2nc3ccc(Cl)cc3s2)CC1` the IC50 was > 85.4 µM (inactive).
`O=C(Nc1ccc(Oc2ccccc2)cc1)c1csc([C@H]2C[C@H](O)[C@@H](CO)O2)n1` was tested, and the IC50 was > 85.4 µM (inactive).
With `COc1cc(N(C)C)ccc1C=c1c2ccccc2n2c1cc(-c1ccccc1)[n+]2C` the IC50 was 26.3 µM (inactive).
For `CC1CC(C)(O)CC(C(O)CC2CC(=O)NC(=O)C2)C1=O` (centres undefined), the IC50 was > 85.3 µM (inactive).
In the case of `COc1ccc(CCNc2ncnc3sc(C)cc23)cc1OC`, the IC50 is reported as > 28.5 µM (inactive).
